Assay results from ChEMBL document CHEMBL3507680, “University of Dundee, Gates Library screen for HepG2 cell viability”.

Assay: Human HepG2 cell viability assay in 384 well format
Type: toxicity, cell-based
Design: dose 125 nL, time 70.5 hour; cytotoxicity at 70.5 h: concentration not given beside the values
Conditions: HepG2 cells, read-out: Inhibition

Structure (SMILES) | cytotoxicity at 70.5 h
O=C(O)c1ccnc(SCC(=O)c2ccccc2)c1 | 14.5%
Cn1cnc2nc3n(c2c1=O)CCC3 | 13.6%
COC(=O)c1cnn(-c2cc(Oc3cccc(C)c3)ncn2)c1N | 4%
O=S(=O)(c1cnccc1N1CCN(CCO)CC1)N1CCCCC1 | 27.8%
CCCN(CCC)c1nc(N)nc(-c2cc(Cl)ccc2OC)n1 | -2.85%
CN1CCN(c2ccncc2S(=O)(=O)N2CCCCC2)CC1 | 0.146%
O=c1ncn(-c2cccc(F)c2)c2ncccc12 | -0.419%
CCc1ccc(C2CC(=O)Nc3c2c(=O)n(C)c2ncnn32)cc1 (stereo not drawn) | -2.98%
Cc1ccccc1C(O)c1ccncc1 (stereo not drawn) | -8.85%
O=S(=O)(c1cccs1)N1CCN2C[C@H](OCC3CC3)C[C@H]2C1 | -3.74%
CC(C)C(=O)N1CCN(S(=O)(=O)C2CC2)CC2(CC(=O)N(C)C2)C1 (stereo not drawn) | -6.71%
Cc1ccc(N2CCC3(CCN(Cc4nccs4)CC3)CC2)nn1 | -7.07%
CC(C)C(=O)N1CCN(S(C)(=O)=O)CC2(CC(=O)N(C)C2)C1 (stereo not drawn) | -7.11%
CCS(=O)(=O)N1CCN(C(=O)NC(C)C)CC2(CC(=O)N(C)C2)C1 (stereo not drawn) | -7.37%
O=C(c1ccco1)N1CC[C@H]2[C@H]1CCN2S(=O)(=O)C1CC1 | -8.4%
Cc1ccc(CN2CCC3(CCN(Cc4ccncc4)CC3)CC2)cc1 | -3.02%
CCN1CCC2(COCc3c(C)nc(N4CCOCC4)nc32)C1 (stereo not drawn) | 11.1%
CCS(=O)(=O)N1Cc2nccn2CC(CN2CCCC2)C1 (stereo not drawn) | 4.02%
O=C1[C@H]2CN(C3CCOCC3)C[C@H]2CN1Cc1cccnc1 | 3.06%
COc1nn(C)c2c1CCCN(S(=O)(=O)c1cccc(C)c1)C2 | -4.74%
COc1nn(C)c2c1CCCN(S(=O)(=O)c1ccccc1F)C2 | -1.52%
c1c(CN2CCCCC2)nc2n1CCN(CC1CC1)C2 | 0.696%
CC(C)CN1CCNC(=O)C12CCN(C(=O)c1ccccn1)CC2 | 9.35%

Structure (SMILES) | cytotoxicity at 70.5 h
CN(C)C(=O)N1CCN(C(=O)c2ccc(Cl)cc2)CC2(CNC(=O)C2)C1 (stereo not drawn) | 11%
CNC(=O)N1CCc2nc(C(=O)Nc3cccnc3)sc2CC1 | -3.13%
CC(C)C(=O)N1CCC12CCCN(C(=O)c1ccnnc1)C2 (stereo not drawn) | -6.79%
O=C(c1c2c(NCC3CC3)ncnc2n2ccccc12)N1CCCC1 | 0.851%
O=C(c1c2c(N3CCOCC3)ncnc2n2ccccc12)N1CCCC1 | -3.03%
CS(=O)(=O)N1CCCCC12CCN(c1nncs1)CC2 | -1.19%
CN(C)C(=O)N1CCN(C(=O)c2ccccc2)CC2(CNC(=O)C2)C1 (stereo not drawn) | -1.67%
O=C(c1c2c(NCC3CC3)ncnc2n2ccccc12)N1CCOCC1 | -1.89%
CCn1c(=O)c2sccc2n(CC(=O)Nc2cccc(Cl)c2)c1=O | 8.59%
O=c1[nH]nc2c(N3CCC(NC4CCOCC4)CC3)nccn12 | -11.2%
CC1CCN(c2nccn3c(=O)[nH]nc23)CC1 | -3.79%
CC1CCCN(c2nccn3c(=O)[nH]nc23)C1 (stereo not drawn) | -7.92%
CCOCCCNC(=O)CN(c1cccc(F)c1)S(C)(=O)=O | -21.2%
COc1cccc(NC(=O)CC2Cn3ncnc3NC2=O)c1 (stereo not drawn) | -10.6%
CCSC1=Nc2c(cnn2-c2ccc(Cl)cc2)C2=NCCCN12 | -7.4%
Cn1c(=O)c2c(n3ncnc13)NC(=O)CC2c1cccc(Br)c1 (stereo not drawn) | -9.38%
O=C1CC(c2ccc3c(c2)OCO3)c2cn[nH]c2N1 (stereo not drawn) | -11.7%
CCCOc1ccc(C2SCC(=O)Nc3c2c(=O)[nH]n3C(C)C)cc1 (stereo not drawn) | -18.7%
O=C(O)CCNC(=O)Cc1csc(-c2cccc(Cl)c2)n1 | -14%
CSC1=Nc2c(cnn2-c2cccc(Cl)c2)C2=NCCCN12 | -12%
Cn1c(=O)c2c(n3ncnc13)NC(=O)CC2c1ccc(F)cc1 (stereo not drawn) | -11.1%
CSC1=Nc2c(cnn2-c2ccc(Cl)cc2)C2=NCCCN12 | -7.03%
COc1cccc(C2CC(=O)Nc3c2c(=O)n(C)c2ncnn32)c1 (stereo not drawn) | 16.7%

Structure (SMILES) | cytotoxicity at 70.5 h
Cn1c(=O)[nH]c(=O)n2c(CC(=O)Nc3c(Cl)cccc3Cl)cnc12 | -14.2%
NCCc1c(-c2ccc(F)cc2)[nH][nH]c1=O | -3.38%
Cc1ccc(NC(=O)Cc2cnc3n(C)c(=O)[nH]c(=O)n23)cc1 | -8.62%
Cn1c(=O)[nH]c(=O)n2c(CC(=O)NCc3ccccc3)cnc12 | -12.3%
COC(=O)Cn1c(=O)nc2n1C(=O)N(c1ccc(C)cc1)C2 | 13.2%
CC(C)n1[nH]c(=O)c2c1NC(=O)CC2c1cccc(Br)c1 (stereo not drawn) | -12.9%
CC(C)(C)n1ncc2c1NC(=O)CC2c1cccc(O)c1 (stereo not drawn) | -4.31%
O=C(CSC1CCc2ccccc2NC1=O)NCc1cccs1 (stereo not drawn) | -13.4%
O=C(CCSC1CCc2ccccc2NC1=O)NCCCO (stereo not drawn) | -12.2%
O=C(Cn1cc(-c2ccccc2)ncc1=O)Nc1ncc[nH]1 | -12.3%
COc1cccc(NC(=O)Cn2cc(-c3ccccc3)ncc2=O)c1 | -8.81%
CC(C)NC(=O)C(NC(=O)N1CCN(c2ccc(Cl)cc2)CC1)C(C)C (stereo not drawn) | -13.3%
O=C(NCc1ccc(F)cc1)C1CCCN(c2ccc3nncn3n2)C1 (stereo not drawn) | 22%
COC(=O)Cn1c(=O)nc2n1C(=O)N(c1cccc(Cl)c1)C2 | -5.07%
CCOc1ccc(Oc2cc(N)ccn2)cc1 | -4.03%
O=c1[nH]c2ccccc2c2c1CCO2 | -2.59%
COc1ccc(Cl)cc1-c1nc(N)nc(N)n1 | 26%
COc1ccccc1-n1c(O)cc(C)c(C#N)c1=O | -1.09%
CNS(=O)(=O)c1cnccc1N1CCN(C(C)C)CC1 | 2.6%
CCC(=O)NS(=O)(=O)c1cccnc1Nc1cccc(Cl)c1Cl | 31.6%
Cn1ccnc1Sc1ccc(S(N)(=O)=O)cn1 | -5.03%
O=S(=O)(c1cnccc1N1CCN(CCO)CC1)N1CCOCC1 | 11.8%
Cn1cc(I)c(C(=O)NC2CCCC2)n1 | 10.4%

Structure (SMILES) | cytotoxicity at 70.5 h
CCC(CO)NCc1ccc(-c2ccccc2F)o1 (stereo not drawn) | -6.8%
O=C(CSc1nnc2n1N=CN(c1ccccc1)C2)c1ccccc1 | -7.5%
CC(=O)CSc1nnc2n1N=CN(c1cccc(Cl)c1)C2 | -8.9%
CCOC1Sc2nnc(C)n2N=C1c1ccc(F)cc1 (stereo not drawn) | -5.95%
CC(=O)c1c(O)n(C)c2ccccc12 | 25.3%
COc1cc(C)c2c(c1C)C[C@@H](C(C)C(=O)O)CC2 (stereo partly drawn) | -3.12%
CN(C)Cc1cn(-c2ccccc2C(=O)NCCC2CCCN2C)cn1 (stereo not drawn) | 24.5%
COCCN1CCCC(c2nccnc2-c2cccc(Cl)c2)C1 (stereo not drawn) | 21%
COc1ccccc1-c1cccc(C2CCCN(C3CCOCC3)C2)n1 (stereo not drawn) | 22.7%
CO[C@@H]1CCC[C@@H](NC(=O)c2cccc(F)c2)[C@H]1O | -1.9%
CNC(=O)c1ccc(C2CN(c3cc(C)nc(N)n3)CCO2)nc1 (stereo not drawn) | 20%
COCCN1CCN(Cc2cnc(C3(C)CCCCO3)nc2)CC1 (stereo not drawn) | 0.727%
O=C(Nc1cccc(F)c1)C1=NOC2(CCNCC2)C1 | -4.38%
O=C(CCN1CCCC1)Nc1c2c(cc3c1CCC3)CCC2 | -0.353%
O=C(c1cccnc1N1CCN(CCO)CC1)N1CCCC1 | -1.63%
CCC(CO)NCc1ccc(-c2ccc(Br)cc2)o1 (stereo not drawn) | 0.103%
CCC(CO)NCc1ccc(-c2ccc(F)c(Cl)c2)o1 (stereo not drawn) | 3.9%
O=C(C[C@@H]1COC[C@H]2CN(CC3CC3)C[C@@H]12)N1CCCCO1 | 5.39%
Cc1ccnc(OC[C@@]23CCO[C@@H]2CCN(c2ncc(F)cn2)C3)n1 | -6.92%
Cc1cc(CN2C[C@H]3CCC[C@@]3(COCc3csc(C)n3)C2)no1 | -9.15%
Cc1nc(COC[C@@]23CCC[C@@H]2CN(CC2CCOCC2)C3)cs1 | -9.04%
O=C(c1cocn1)N1CCC2(CC1)COC(COCc1ccccn1)C2 (stereo not drawn) | 0.202%
c1ncn(Cc2cn3c(n2)CN(CC2CCCC2)CC3)n1 | 1.84%

Structure (SMILES) | cytotoxicity at 70.5 h
CN1CCS(=O)(=O)[C@@H]2CCN(C(=O)c3ccccc3)CC[C@@H]21 | -9.02%
CC(C)OCc1nn(C)c2c1CCN(Cc1ccco1)C2 | -7.18%
CCCS(=O)(=O)N1Cc2nccn2CC(CN2CCCC2)C1 (stereo not drawn) | -4.76%
COc1ccc(CC(=O)N2CC[C@@H]3[C@H](CC2)N(C)CCS3(=O)=O)cc1 | -8.6%
CN(C)C(=O)[C@H]1C[C@H]2OCC[C@H]2N(CCOc2ccc(Cl)cc2)C1 | -3.17%
CC(C)n1nc(Cn2cccn2)c2c1CN(C1CCOCC1)C2 | -4.7%
CC(C)n1nc(Cn2cccn2)c2c1CN(C1CCOC1)C2 (stereo not drawn) | -4.66%
CC(C)n1nc(Cn2cccn2)c2c1CN(CC1CCOC1)C2 (stereo not drawn) | -4.31%
CC(C)n1nc(Cn2cccc2)c2c1CN(C1CCOCC1)C2 | 0.409%
Cc1ccc(CN2CCC3(CC2)CCN(Cc2ccoc2)CC3)cc1 | -5.46%
Cc1ccc(CN2CCC3(CC2)CCN(Cc2ccco2)CC3)cc1 | -6.1%
CN1CCN(C[C@H]2OC[C@@H]3CCN(C(=O)c4cnccn4)C[C@@H]32)CC1 | -2.22%
CCOCC1CN(CCOc2ccc(Cl)cc2)Cc2c1cnn2C (stereo not drawn) | 2.89%
Cc1ccc(CN2C[C@H](N3CCOCC3)[C@@H]3OCCC[C@@H]32)o1 | -0.951%
c1c(CN2CCCC2)nc2n1CCN(CC1CC1)C2 | -4.19%
Cc1cc(CN2C[C@H](N3CCOCC3)[C@@H]3OCCC[C@@H]32)oc1C | -7.89%
c1snnc1CN1C[C@H]2CCC[C@@H](CN3CCOCC3)[C@H]2C1 | -7.77%
CN(Cc1ccncc1)C1COC2(CCN(c3ncc(F)cn3)CC2)C1 (stereo not drawn) | -1.66%
c1cnc(N2CC[C@@H]3CN(Cc4ccncc4)CCO[C@@H]3C2)nc1 | -2.03%
Cc1c(NC(=O)CN2CCN(C3CCCC3)C(=O)C2)cnn1C | -2.64%
c1ccc(Sc2ccc3c(c2)OCO3)c(CNC2=NCCN2)c1 | -0.794%
